# Earlier results as cited in patent US20120142605A1, “METHODS OF TREATING PSORIASIS” (Amgen Inc., priority 2009, published 2012).
# Test system: psoriasis patients
# Conditions: not completely effective for all patients
substance,measurement,value
etanercept,time for which it can be safely and effectively used,at least 96 weeks
